Consider 23 compounds from ChEMBL document CHEMBL4699634, “Series of Novel and Highly Potent Cyclic Peptide PCSK9 Inhibitors Derived from an mRNA Display Screen and Optimized via Structure-Based Design” (J Med Chem, 2020).

Structures are written as SMILES. Numbered stars: 1 amine (or outer) side, 2 acyl side, 3 side chain; on linkers, the order of the positions; unused ones are H or OH. Bridge positions count the residues as written; N and C are the ends. Square brackets hold non-standard residues; d marks the D form. Peptide text beside a SMILES is read from it. ξ: configuration not given here. Trp(5-F) = N[C@@H](Cc1c[nH]c2ccc(F)cc12)C(=O)O; Trp(7-aza) = N[C@@H](Cc1c[nH]c2ncccc12)C(=O)O; NMePhe(4-F) = CN[C@@H](Cc1ccc(F)cc1)C(=O)O; Bip = N[C@@H](Cc1ccc(-c2ccccc2)cc1)C(=O)O; X4 = CC(N[*:1])(C(=O)[*:2])c1cccc2ccccc12; NMeW = CN[C@@H](Cc1c[nH]c2ccccc12)C(=O)O; mXylylene = c1cc(C[*:1])cc(C[*:2])c1; NMeY = CN[C@@H](Cc1ccc(O)cc1)C(=O)O; NMeH = CN[C@@H](Cc1c[nH]cn1)C(=O)O; NMeK = CN[C@@H](CCCCN)C(=O)O; Tle = CC(C)(C)[C@H](N)C(=O)O; αMeP = C[C@@]1(C(=O)O)CCCN1; Pip = O=C(O)[C@@H]1CCCCN1; Aze = O=C(O)[C@@H]1CCN1; Nva = CCC[C@H](N)C(=O)O; ξNle = CCCCC(N)C(=O)O; Mpa = O=C(O)CCS; Sar = CNCC(=O)O

The target in the assay is PCSK9/LDLR (Homo sapiens, UniProt Q8NBP7). Kind of assay: Inhibition of avi-tagged-biotinylated human PCSK9 interaction with His-tagged human LDLR EGFa domain by LANCE Ulight Streptavidin based TR-FRET assay. It counts as protein assay. In general terms: TR-FRET usually uses a lanthanide donor and a delayed reading to cut background.
Chain of PCSK9/LDLR (Q8NBP7 31-152 limits assumed): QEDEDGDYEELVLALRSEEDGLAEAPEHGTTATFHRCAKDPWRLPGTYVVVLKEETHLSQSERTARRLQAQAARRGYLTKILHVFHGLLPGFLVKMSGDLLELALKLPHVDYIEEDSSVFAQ
Chain of PCSK9/LDLR (Q8NBP7 153-692 limits assumed): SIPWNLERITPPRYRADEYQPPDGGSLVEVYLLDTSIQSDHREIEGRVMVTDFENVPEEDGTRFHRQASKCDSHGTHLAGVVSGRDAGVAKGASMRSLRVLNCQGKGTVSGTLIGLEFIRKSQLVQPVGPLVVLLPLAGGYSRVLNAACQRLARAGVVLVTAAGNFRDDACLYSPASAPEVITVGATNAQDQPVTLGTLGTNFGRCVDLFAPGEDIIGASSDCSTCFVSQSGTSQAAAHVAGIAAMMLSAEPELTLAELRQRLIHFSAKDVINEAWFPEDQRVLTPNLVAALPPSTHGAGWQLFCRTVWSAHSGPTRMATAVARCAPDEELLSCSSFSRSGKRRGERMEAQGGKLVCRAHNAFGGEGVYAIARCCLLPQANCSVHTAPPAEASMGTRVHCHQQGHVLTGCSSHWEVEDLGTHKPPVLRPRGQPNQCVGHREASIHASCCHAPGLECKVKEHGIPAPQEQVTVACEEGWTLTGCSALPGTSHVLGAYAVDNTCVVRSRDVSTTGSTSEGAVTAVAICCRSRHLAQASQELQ
Chain of PCSK9/LDLR (P01130 22-860 partner limits assumed): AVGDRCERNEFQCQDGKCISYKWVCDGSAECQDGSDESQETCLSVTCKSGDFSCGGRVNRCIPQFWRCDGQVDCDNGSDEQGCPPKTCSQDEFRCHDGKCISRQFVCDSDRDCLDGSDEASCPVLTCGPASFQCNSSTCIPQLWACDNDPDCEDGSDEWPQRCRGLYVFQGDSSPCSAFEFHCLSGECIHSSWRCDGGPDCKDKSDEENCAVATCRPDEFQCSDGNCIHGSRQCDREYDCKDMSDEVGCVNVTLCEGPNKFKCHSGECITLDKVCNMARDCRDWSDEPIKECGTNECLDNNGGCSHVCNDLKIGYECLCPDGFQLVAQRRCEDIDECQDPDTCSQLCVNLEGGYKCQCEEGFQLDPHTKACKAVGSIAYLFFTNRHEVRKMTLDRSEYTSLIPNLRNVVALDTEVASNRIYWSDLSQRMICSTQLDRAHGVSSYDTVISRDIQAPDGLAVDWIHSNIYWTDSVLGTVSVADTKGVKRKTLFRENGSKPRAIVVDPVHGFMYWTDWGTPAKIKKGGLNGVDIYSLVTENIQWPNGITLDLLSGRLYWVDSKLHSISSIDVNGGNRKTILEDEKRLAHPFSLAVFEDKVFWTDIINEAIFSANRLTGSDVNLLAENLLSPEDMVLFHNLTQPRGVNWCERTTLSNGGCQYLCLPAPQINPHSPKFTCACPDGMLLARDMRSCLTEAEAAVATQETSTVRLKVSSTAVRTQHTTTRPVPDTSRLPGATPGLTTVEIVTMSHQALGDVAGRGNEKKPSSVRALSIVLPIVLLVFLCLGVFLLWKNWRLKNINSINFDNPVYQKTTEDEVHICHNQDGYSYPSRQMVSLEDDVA
Turning to `C[C@@H]1NC(=O)[C@H](CCCCN)NC(=O)CCSCc2cccc(c2)CSC[C@@H](C(N)=O)NC(=O)[C@@H]2CCCN2C(=O)[C@H](Cc2ccc(O)cc2)NC(=O)[C@H](Cc2cnc[nH]2)NC(=O)[C@H](CC(=O)O)NC(=O)[C@H](Cc2c[nH]c3ccc(F)cc23)NC(=O)[C@H](Cc2c[nH]c3ccc(F)cc23)NC1=O` ([Mpa]KA[Trp(5-F)][Trp(5-F)]DHYPC-NH2; linker 1-10 via mXylylene), the Ki (as a rule, the equilibrium dissociation constant of an inhibitor or competing ligand from its target) was greater than 48000 nM. Under `CN1C(=O)[C@H](CC(=O)O)NC(=O)[C@H](Cc2c[nH]c3ccc(F)cc23)NC(=O)[C@H](Cc2c[nH]c3ccc(F)cc23)NC(=O)CNC(=O)[C@H](CCCCN)NC(=O)CCSCc2cccc(c2)CSC[C@@H](C(N)=O)NC(=O)[C@@H]2CCCN2C(=O)[C@H](Cc2ccc(O)cc2)NC(=O)[C@@H]1Cc1cnc[nH]1` ([Mpa]KG[Trp(5-F)][Trp(5-F)]D[NMeH]YPC-NH2; linker 1-10 via mXylylene) stands greater than 48000 nM; under `CN1C(=O)[C@H](Cc2c[nH]c3ccc(F)cc23)NC(=O)CNC(=O)[C@H](CCCCN)NC(=O)CCSCc2cccc(c2)CSC[C@@H](C(N)=O)NC(=O)[C@@H]2CCCN2C(=O)[C@H](Cc2ccc(O)cc2)NC(=O)[C@H](Cc2cnc[nH]2)NC(=O)[C@H](CC(=O)O)NC(=O)[C@@H]1Cc1c[nH]c2ccccc12` ([Mpa]KG[Trp(5-F)][NMeW]DHYPC-NH2; linker 1-10 via mXylylene), greater than 48000 nM; under `CC1(c2cccc3ccccc23)NC(=O)CNC(=O)[C@H](CCCCN)NC(=O)CCSCc2cccc(c2)CSC[C@@H](C(N)=O)NC(=O)[C@@H]2CCCN2C(=O)[C@H](Cc2ccc(O)cc2)NC(=O)[C@H](Cc2cnc[nH]2)NC(=O)[C@H](CC(=O)O)NC(=O)[C@H](Cc2c[nH]c3ccc(F)cc23)NC1=O` (stereo partly drawn) ([Mpa]KG[X4][Trp(5-F)]DHYPC-NH2; linker 1-10 via mXylylene), 63 nM.

In the case of `NCCCC[C@H]1NC(=O)CCSCc2cccc(c2)CSC[C@@H](C(N)=O)NC(=O)[C@@H]2CCCN2C(=O)[C@H](Cc2ccc(O)cc2)NC(=O)[C@H](Cc2cnc[nH]2)NC(=O)[C@H](CC(=O)O)NC(=O)[C@H](Cc2c[nH]c3ccc(F)cc23)NC(=O)[C@H](Cc2c[nH]c3ccc(F)cc23)NC(=O)CNC1=O`, the Ki was found to be 16200 nM. The compound `NCCCC[C@@H]1NC(=O)CCSCc2cccc(c2)CSC[C@@H](C(N)=O)NC(=O)[C@@H]2CCCN2C(=O)[C@H](Cc2ccc(O)cc2)NC(=O)[C@H](Cc2c[nH]cn2)NC(=O)[C@H](CC(=O)O)NC(=O)[C@H](Cc2c[nH]c3ccc(F)cc23)NC(=O)[C@H](Cc2ccc(-c3ccccc3)cc2)NC(=O)CNC1=O` ([Mpa]KG[Bip][Trp(5-F)]DHYPC-NH2; linker 1-10 via mXylylene) gave an inhibition constant Ki of 29300 nM. The result for `CN1C(=O)[C@H](Cc2cnc[nH]2)NC(=O)[C@H](CC(=O)O)NC(=O)[C@H](Cc2c[nH]c3ccc(F)cc23)NC(=O)[C@H](Cc2c[nH]c3ccc(F)cc23)NC(=O)CNC(=O)[C@H](CCCCN)NC(=O)CCSCc2cccc(c2)CSC[C@@H](C(N)=O)NC(=O)[C@@H]2CCCN2C(=O)[C@@H]1Cc1ccc(O)cc1` ([Mpa]KG[Trp(5-F)][Trp(5-F)]DH[NMeY]PC-NH2; linker 1-10 via mXylylene) reads 112 nM; that for `CC(=O)N[C@@H](Cc1cnc[nH]1)C(=O)N(C)[C@@H](Cc1ccc(F)cc1)C(=O)N[C@H]1CSCc2cccc(c2)CSC[C@@H](C(N)=O)NC(=O)[C@@H]2CCCN2C(=O)[C@H](Cc2ccc(O)cc2)NC(=O)[C@H](Cc2cnc[nH]2)NC(=O)[C@H](CC(=O)O)NC(=O)[C@H](Cc2c[nH]c3ccc(F)cc23)NC(=O)[C@H](Cc2c[nH]c3ccc(F)cc23)NC(=O)CNC(=O)[C@H](CCCCN)NC1=O` (Ac-H[NMePhe(4-F)]CKG[Trp(5-F)][Trp(5-F)]DHYPC-NH2; linker 3-12 via mXylylene), 956 nM; that for `CC(=O)N[C@H]1CSCc2cccc(c2)CSC[C@@H](C(N)=O)NC(=O)[C@@H]2CCCN2C(=O)[C@H](Cc2ccc(O)cc2)NC(=O)[C@H](Cc2c[nH]cn2)NC(=O)[C@H](CC(=O)O)NC(=O)[C@H](Cc2c[nH]c3ccc(F)cc23)NC(=O)[C@H](Cc2c[nH]c3ccccc23)NC(=O)CNC(=O)[C@H](CCCCN)NC1=O` (Ac-CKGW[Trp(5-F)]DHYPC-NH2; linker 1-10 via mXylylene), 103 nM. Under `C[C@@H]1NC(=O)[C@@H]2CCCN2C(=O)[C@H](Cc2c[nH]c3ccc(F)cc23)NC(=O)[C@H](Cc2c[nH]c3ccc(F)cc23)NC(=O)CNC(=O)[C@H](CCCCN)NC(=O)CCSCc2cccc(c2)CSC[C@@H](C(N)=O)NC(=O)[C@]2(C)CCCN2C(=O)[C@H](Cc2ccc(O)cc2)NC1=O` ([Mpa]KG[Trp(5-F)][Trp(5-F)]PAY[αMeP]C-NH2; linker 1-10 via mXylylene) stands 88.3 nM. Under `C[C@@H]1NC(=O)[C@H](Cc2c[nH]c3ccc(F)cc23)NC(=O)CNC(=O)[C@H](CCCCN)NC(=O)CCSCc2cccc(c2)CSC[C@@H](C(N)=O)NC(=O)[C@@H]2CCCN2C(=O)[C@H](Cc2ccc(O)cc2)NC(=O)[C@H](Cc2cnc[nH]2)NC(=O)[C@H](CC(=O)O)NC1=O` ([Mpa]KG[Trp(5-F)]ADHYPC-NH2; linker 1-10 via mXylylene) stands greater than 48000 nM; under `CCCCC(NC(C)=O)C(=O)N[C@H]1CSCc2cccc(c2)CSC[C@@H](C(N)=O)NC(=O)[C@H]([C@@H](C)O)NC(=O)[C@H](CCC)NC(=O)[C@H](Cc2ccc(O)cc2)NC(=O)[C@H](CCC(=O)O)NC(=O)[C@H](CCC)NC(=O)[C@H](Cc2c[nH]c3ncccc23)NC(=O)[C@H]([C@@H](C)O)NC(=O)[C@H](Cc2cnc[nH]2)NC(=O)[C@H](Cc2ccc(O)cc2)NC(=O)[C@H](C(C)(C)C)NC1=O` (stereo partly drawn) (Ac-[ξNle]C[Tle]YHT[Trp(7-aza)][Nva]EY[Nva]TC-NH2; linker 2-13 via mXylylene), 134 nM; under `NCCCC[C@@H]1NC(=O)CCSCc2cccc(c2)CSC[C@@H](C(N)=O)NC(=O)[C@@H]2CCCN2C(=O)[C@H](Cc2ccc(O)cc2)NC(=O)[C@H](Cc2cnc[nH]2)NC(=O)[C@H](CC(=O)O)NC(=O)[C@@H](Cc2c[nH]c3ccccc23)NC(=O)[C@H](Cc2c[nH]c3ccc(F)cc23)NC(=O)CNC1=O`, greater than 48000 nM. For the compound `NCCCC[C@@H]1NC(=O)CCSCc2cccc(c2)CSC[C@@H](C(N)=O)NC(=O)[C@@H]2CCN2C(=O)[C@H](Cc2ccc(O)cc2)NC(=O)[C@H](Cc2cnc[nH]2)NC(=O)[C@H](CC(=O)O)NC(=O)[C@H](Cc2c[nH]c3ccc(F)cc23)NC(=O)[C@H](Cc2c[nH]c3ccc(F)cc23)NC(=O)CNC1=O` ([Mpa]KG[Trp(5-F)][Trp(5-F)]DHY[Aze]C-NH2; linker 1-10 via mXylylene), the affinity, expressed as Ki, was 67.5 nM. Under `C[C@@H]1NC(=O)[C@H](Cc2ccc(O)cc2)NC(=O)[C@H](Cc2cnc[nH]2)NC(=O)[C@H](CC(=O)O)NC(=O)[C@H](Cc2c[nH]c3ccc(F)cc23)NC(=O)[C@H](Cc2c[nH]c3ccc(F)cc23)NC(=O)CNC(=O)[C@H](CCCCN)NC(=O)CCSCc2cccc(c2)CSC[C@@H](C(N)=O)NC1=O` ([Mpa]KG[Trp(5-F)][Trp(5-F)]DHYAC-NH2; linker 1-10 via mXylylene) stands greater than 48000 nM. `NCCCC[C@@H]1NC(=O)CCSCc2cccc(c2)CSC[C@@H](C(N)=O)NC(=O)[C@H]2CCCN2C(=O)[C@H](Cc2ccc(O)cc2)NC(=O)[C@H](Cc2cnc[nH]2)NC(=O)[C@H](CC(=O)O)NC(=O)[C@H](Cc2c[nH]c3ccc(F)cc23)NC(=O)[C@H](Cc2c[nH]c3ccc(F)cc23)NC(=O)CNC1=O` returned an inhibitory constant (Ki) greater than 50000 nM. The result for `CN1C(=O)CCSCc2cccc(c2)CSC[C@@H](C(N)=O)NC(=O)[C@@H]2CCCN2C(=O)[C@H](Cc2ccc(O)cc2)NC(=O)[C@H](Cc2cnc[nH]2)NC(=O)[C@H](CC(=O)O)NC(=O)[C@H](Cc2c[nH]c3ccc(F)cc23)NC(=O)[C@H](Cc2c[nH]c3ccc(F)cc23)NC(=O)CNC(=O)[C@@H]1CCCCN` ([Mpa][NMeK]G[Trp(5-F)][Trp(5-F)]DHYPC-NH2; linker 1-10 via mXylylene) reads 342 nM; that for `NCCCC[C@@H]1NC(=O)CCSCc2cccc(c2)CSC[C@@H](C(N)=O)NC(=O)[C@@H]2CCCCN2C(=O)[C@H](Cc2ccc(O)cc2)NC(=O)[C@H](Cc2cnc[nH]2)NC(=O)[C@H](CC(=O)O)NC(=O)[C@H](Cc2c[nH]c3ccc(F)cc23)NC(=O)[C@H](Cc2c[nH]c3ccc(F)cc23)NC(=O)CNC1=O` ([Mpa]KG[Trp(5-F)][Trp(5-F)]DHY[Pip]C-NH2; linker 1-10 via mXylylene), 969 nM; that for `CN1C(=O)CNC(=O)[C@H](CCCCN)NC(=O)CCSCc2cccc(c2)CSC[C@@H](C(N)=O)NC(=O)[C@@H]2CCCN2C(=O)[C@H](Cc2ccc(O)cc2)NC(=O)[C@H](Cc2cnc[nH]2)NC(=O)[C@H](CC(=O)O)NC(=O)[C@H](Cc2c[nH]c3ccc(F)cc23)NC(=O)[C@@H]1Cc1c[nH]c2ccccc12` ([Mpa]KG[NMeW][Trp(5-F)]DHYPC-NH2; linker 1-10 via mXylylene), greater than 48000 nM.

`NCCCC[C@@H]1NC(=O)CCSCc2cccc(c2)CSC[C@@H](C(N)=O)NC(=O)[C@@H]2CCCN2C(=O)[C@H](Cc2ccc(O)cc2)NC(=O)[C@@H](Cc2cnc[nH]2)NC(=O)[C@H](CC(=O)O)NC(=O)[C@H](Cc2c[nH]c3ccc(F)cc23)NC(=O)[C@H](Cc2c[nH]c3ccc(F)cc23)NC(=O)CNC1=O` gave an inhibition constant (Ki) greater than 48000 nM. The result for `C[C@@H]1NC(=O)CCSCc2cccc(c2)CSCCNC(=O)[C@]2(C)CCCN2C(=O)[C@H](Cc2ccc(O)cc2)NC(=O)[C@H](Cc2cnc[nH]2)NC(=O)[C@H](CC(=O)O)NC(=O)[C@H](Cc2c[nH]c3ccc(F)cc23)NC(=O)[C@H](Cc2c[nH]c3ccc(F)cc23)NC(=O)[C@@H](CCCCN)NC1=O` reads 48.1 nM; that for `CN1CC(=O)N[C@@H](Cc2c[nH]c3ccc(F)cc23)C(=O)N[C@@H](Cc2c[nH]c3ccc(F)cc23)C(=O)N[C@@H](CC(=O)O)C(=O)N[C@@H](Cc2cnc[nH]2)C(=O)N[C@@H](Cc2ccc(O)cc2)C(=O)N2CCC[C@H]2C(=O)N[C@H](C(N)=O)CSCc2cccc(c2)CSCCC(=O)N[C@@H](CCCCN)C1=O` ([Mpa]K[Sar][Trp(5-F)][Trp(5-F)]DHYPC-NH2; linker 1-10 via mXylylene), 4090 nM. Under `NCCCC[C@@H]1NC(=O)CCSCc2cccc(c2)CSC[C@@H](C(N)=O)NC(=O)[C@@H]2CCCN2C(=O)[C@@H](Cc2ccc(O)cc2)NC(=O)[C@H](Cc2cnc[nH]2)NC(=O)[C@H](CC(=O)O)NC(=O)[C@H](Cc2c[nH]c3ccc(F)cc23)NC(=O)[C@H](Cc2c[nH]c3ccc(F)cc23)NC(=O)CNC1=O` stands greater than 48000 nM.
